In this assay the test system is P. Falciparum NF54. The assay is described as follows: Plasmodium falciparum in vitro assay ([3H]-hypoxanthine incorporation). The format is cell-based. Conditions: Plasmodium falciparum, Erythrocyte, P. Falciparum NF54, erythrocytic stages in human red blood cells, 50% human serum. An outline of the steps:
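This in vitro antimalarial assay used P. falciparum erythrocytic stages cultured in human erythrocytes and measured [3H]-hypoxanthine incorporation. Radioactivity on the dried filters, placed in plastic foil with 10 mL scintillation fluid, was counted in a Betaplate liquid scintillation counter. Sigmoidal inhibition curves built in Microsoft Excel gave the IC50.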
`Cc1cc(Nc2ccc(CN(C(=O)/C=C/c3ccc(C(F)(F)F)cc3)C3CCN(C4CCCC4)CC3)cc2)cc(C)n1` [Example 87, (E)-N-(1-Cyclopentyl-piperidin-4-yl)-N-[4-(2,6-dimethyl-pyridin-4-ylamino)-benzyl]-3-(4-trifluoromethyl-phenyl)-acrylamide]: the midpoint of inhibition, the IC50, lay at 28 nM.
As to `COc1ccc2nccc(Nc3ccc(CN(C(=O)/C=C/c4ccc(C(F)(F)F)cc4)C4CCN(C5CCCC5)CC4)cc3)c2c1` [Example 88, (E)-N-(1-Cyclopentyl-piperidin-4-yl)-N-[4-(6-methoxy-quinolin-4-ylamino)-benzyl]-3-(4-trifluoromethyl-phenyl)-acrylamide], the IC50 was 21 nM.
Regarding `O=C(/C=C/c1ccc(C(F)(F)F)cc1)N(Cc1ccc(Nc2cc(C(F)(F)F)nc3c(C(F)(F)F)cccc23)cc1)C1CCN(C2CCCC2)CC1` [Example 89, (E)-N-[4-(2,8-Bis-trifluoromethyl-quinolin-4-ylamino)-benzyl]-N-(1-cyclopentyl-piperidin-4-yl)-3-(4-trifluoromethyl-phenyl)-acrylamide], the concentration for half-maximal inhibition (IC50) was 337 nM.
With `O=C(/C=C/c1ccc(C(F)(F)F)cc1)N(Cc1ccc(Nc2ccnc3cc(C(F)(F)F)ccc23)cc1)C1CCN(C2CCCC2)CC1` [Example 90, (E)-N-(1-Cyclopentyl-piperidin-4-yl)-3-(4-trifluoromethyl-phenyl)-N-[4-(7-trifluoromethyl-quinolin-4-ylamino)-benzyl]-acrylamide] the figure was 138 nM.
In turn, `O=C(/C=C/c1ccc(C(F)(F)F)cc1)N(Cc1ccc(Nc2cncnc2)cc1)C1CCN(C2CCCC2)CC1` [Example 91, (E)-N-(1-Cyclopentyl-piperidin-4-yl)-N-[4-(pyrimidin-5-ylamino)-benzyl]-3-(4-trifluoromethyl-phenyl)-acrylamide] yielded an IC50 of 291 nM.
Molecule `O=C(/C=C/c1ccc(C(F)(F)F)cc1)N(Cc1ccc(Nc2ccncn2)cc1)C1CCN(C2CCCC2)CC1` [Example 92, (E)-N-(1-Cyclopentyl-piperidin-4-yl)-N-[4-(pyrimidin-4-ylamino)-benzyl]-3-(4-trifluoromethyl-phenyl)-acrylamide] gave an IC50 of 269 nM.
`O=C(/C=C/c1ccc(C(F)(F)F)cc1)N(Cc1ccc(Nc2ccccc2)cc1)C1CCN(C2CCCC2)CC1` [Example 93, (E)-N-(1-Cyclopentyl-piperidin-4-yl)-N-(4-phenylamino-benzyl)-3-(4-trifluoromethyl-phenyl)-acrylamide] returned an IC50 of 418 nM.
For the molecule `COc1cc(Nc2ccc(CN(C(=O)/C=C/c3ccc(C(F)(F)F)cc3)C3CCN(C4CCCC4)CC3)cc2)ccn1` [Example 94, (E)-N-(1-Cyclopentyl-piperidin-4-yl)-N-[4-(2-methoxy-pyridin-4-ylamino)-benzyl]-3-(4-trifluoromethyl-phenyl)-acrylamide], the IC50 is 286 nM.
As for `Cc1cc(Nc2ccc(CN(C(=O)/C=C/c3ccc(C(F)(F)F)cc3)C3CCN(C4CCCC4)CC3)cc2)ccn1` [Example 95, (E)-N-(1-Cyclopentyl-piperidin-4-yl)-N-[4-(2-methyl-pyridin-4-ylamino)-benzyl]-3-(4-trifluoromethyl-phenyl)-acrylamide], the figure is 13 nM.
On to `CN(c1ccc(CN(C(=O)/C=C/c2ccc(C(F)(F)F)cc2)C2CCN(C3CCCC3)CC2)cc1)c1cccnc1` [Example 96, (E)-N-(1-Cyclopentyl-piperidin-4-yl)-N-[4-(methyl-pyridin-3-yl-amino)-benzyl]-3-(4-trifluoromethyl-phenyl)-acrylamide], for which the 50% inhibitory concentration (IC50) was determined as 351 nM.
Take `O=C(/C=C/c1ccc(C(F)(F)F)cc1)N(Cc1ccc(Nc2ccnc3cc(Cl)ccc23)cc1)C1CCN(C2CCCC2)CC1` [Example 97, (E)-N-[4-(7-Chloro-quinolin-4-ylamino)-benzyl]-N-(1-cyclopentyl-piperidin-4-yl)-3-(4-trifluoromethyl-phenyl)-acrylamide]: half-maximal inhibition (IC50) was put at 120 nM.
In the case of `Cc1ccc(Nc2ccc(CN(C(=O)/C=C/c3ccc(C(F)(F)F)cc3)C3CCN(C4CCCC4)CC3)cc2)nc1` [Example 98, (E)-N-(1-Cyclopentyl-piperidin-4-yl)-N-[4-(5-methyl-pyridin-2-ylamino)-benzyl]-3-(4-trifluoromethyl-phenyl)-acrylamide], the IC50 amounted to 370 nM.
As to `COc1ccc2nc(C)cc(Nc3ccc(CN(C(=O)/C=C/c4ccc(C(F)(F)F)cc4)C4CCN(C5CCCC5)CC4)cc3)c2c1` [Example 100, (E)-N-(1-Cyclopentyl-piperidin-4-yl)-N-[4-(6-methoxy-2-methyl-quinolin-4-ylamino)-benzyl]-3-(4-trifluoromethyl-phenyl)-acrylamide], the IC50 was 21 nM.
For `CN(c1ccncc1)c1ccc(CN(C(=O)/C=C/c2ccc(C(F)(F)F)cc2)C2CN(C3CCCC3)C2)cc1` [Example 102, (E)-N-(1-Cyclopentyl-azetidin-3-yl)-N-[4-(methyl-pyridin-4-yl-amino)-benzyl]-3-(4-trifluoromethyl-phenyl)-acrylamide], the half-maximal inhibitory concentration (IC50) stood at 81 nM.
Molecule `O=C(/C=C/c1ccc(C(F)(F)F)cc1)N(Cc1ccc(Nc2ccncc2)nc1)C1CCN(C2CCCC2)CC1` [Example 103, (E)-N-(1-Cyclopentyl-piperidin-4-yl)-N-[6-(pyridin-4-ylamino)-pyridin-3-ylmethyl]-3-(4-trifluoromethyl-phenyl)-acrylamide] registered a concentration for half-maximal inhibition (IC50) of 44 nM.
`CN(c1ccncc1)c1ccc(CN(C(=O)/C=C/c2ccc(C(F)(F)F)cc2)C2CCN(C3CCCC3)CC2)cn1` [Example 104, (E)-N-(1-Cyclopentyl-piperidin-4-yl)-N-[6-(methyl-pyridin-4-yl-amino)-pyridin-3-ylmethyl]-3-(4-trifluoromethyl-phenyl)-acrylamide] yielded an IC50 of 60 nM.
As to `CN1CCC(Nc2ccc(CN(C(=O)/C=C/c3ccc(C(F)(F)F)cc3)C3CCN(C4CCCC4)CC3)cn2)CC1` [Example 105, (E)-N-(1-Cyclopentyl-piperidin-4-yl)-N-[6-(1-methyl-piperidin-4-ylamino)-pyridin-3-ylmethyl]-3-(4-trifluoromethyl-phenyl)-acrylamide], the IC50 turned out to be 152 nM.
The molecule `CN1CCC(N(C)c2ccc(CN(C(=O)/C=C/c3ccc(C(F)(F)F)cc3)C3CCN(C4CCCC4)CC3)cn2)CC1` [Example 106, (E)-N-(1-Cyclopentyl-piperidin-4-yl)-N-{6-[methyl-(1-methyl-piperidin-4-yl)-amino]-pyridin-3-ylmethyl}-3-(4-trifluoromethyl-phenyl)-acrylamide] gave a half-inhibitory concentration (IC50) of 348 nM.
Molecule `O=C(/C=C/c1ccc(C(F)(F)F)cc1)N(Cc1ccc(Nc2ccncn2)nc1)C1CCN(C2CCCC2)CC1` [Example 107, (E)-N-(1-Cyclopentyl-piperidin-4-yl)-N-[6-(pyrimidin-4-ylamino)-pyridin-3-ylmethyl]-3-(4-trifluoromethyl-phenyl)-acrylamide] yielded an IC50 of 420 nM.
Consider `Cc1nccc(Nc2ccc(CN(C(=O)/C=C/c3ccc(C(F)(F)F)cc3)C3CCN(C4CCCC4)CC3)cn2)n1` [Example 108, (E)-N-(1-Cyclopentyl-piperidin-4-yl)-N-[6-(2-methyl-pyrimidin-4-ylamino)-pyridin-3-ylmethyl]-3-(4-trifluoromethyl-phenyl)-acrylamide], for which the IC50 was found to be 430 nM.

For the origin of these results see patent US9637473B2, “Acrylamide derivatives as antimalarial agents” (priority 2013, dated 2017).
